Data on one molecule can be found in patent publication US11331330B2, “Phytochemical-antibiotic combination for the treatment of a bacterial infection” (University of Saskatchewan, priority 2018, dated 2022).

By MIC is commonly meant the lowest concentration that inhibits growth of the organism. In general, IC50 refers to the concentration that inhibits the measured activity by half.

Values after ≈ are worked out from the molar mass of the structure shown. “Also recorded” adds a separate entry of the source.

In one test the test system is M. haemolytica. Description: Resistance generation study. Type of test: cell-based, Mannheimia haemolytica. The settings on record: sub-MIC (1/2 MIC) doses, stress generation conditions. The method, then:
(§1) For the resistance generation studies, M. haemolytica and P. multocida were cultured in the presence of sub-MIC doses (1/2 MIC) of tulathromycin and gallic acid individually until they reach 1 unit OD at 565 nm. The bacterial cells were then given antibiotic stress relaxation by culturing them in BHIB till 1 OD unit of turbidity is reached at 565 nm. This first pass cycle of culturing in sub-MIC dose of tulathromycin, and relaxing in BHIB is considered as 1st generation (1G-TulathromycinA). The cycle as above was repeated to obtain 2nd and 3rd generation of bacterial cultures. Subsequently, MIC assays were performed with all the three generations of the two bacterial strains to evaluate the level of sensitivity towards tulathromycin. The experiments were repeated with gallic acid.
(§2) Bacteria were treated individually with sub-MIC dose (½ MIC) of tulathromycin and gallic acid with alternate relaxation of stress in BHIB for […] each. Each 24 hrs treatment was considered as 1 generation (24 hrs drug+24 hrs of BHIB).

The next test deals with P. multocida. Description: Resistance generation study. Type of test: cell-based, Pasteurella multocida. The settings on record: sub-MIC (1/2 MIC) doses, stress generation conditions. The method, then:
as §1, §2

Test [1] concerns co-culture of M. haemolytica and P. multocida. Description: MIC against the co-culture. Type of test: cell-based. The method, then:
MIC of tulathromycin, gallic acid and its combinations were determined against the co-culture of M. haemolytica and P. multocida. The overnight grown cultures of M. haemolytica and P. multocida were adjusted to 0.5 McFarland standard turbidity in BHIB, and then equal proportion of each of the cultures was added in the 96 well plates. After the addition of serially diluted drugs, the plates were incubated at 37° C. overnight and read as of above.

The next test concerns the target arginase. The settings on record: arginase inhibitor; cited from earlier work.
The subject of test [2] is M. haemolytica ATCC 29702. Description: Synergy studies, checker board serial dilution. The format is cell-based, Mannheimia haemolytica. The settings on record: gallic acid alone, 3.9 μg/ml dose. The method, then:
(§3) For the drug interaction studies, gallic acid was mixed with tulathromycin to test the drug interactions between tulathromycin and gallic acid. This was done by a checker board serial dilution technique performed in 96-well polypropylene plates (as explained elsewhere, for example, in [11]). The fractional inhibitory concentration (FIC) index of the combinations of antimicrobial compounds was calculated according to the equation: FIC index=FICA+FICB=A/MICA+B/MICB where A (gallic acid) and B (Tulathromycin) are the MICs of compound A and compound B in combination. MICA and MICB are the MICs of compound A and compound B, separately, FICA and FICB are the FICs of compound A and compound B (Hal M J J Antimicrob Chemother. 1983 May; 11(5):427-33). Results (a) Antimicrobial Activity of Tulathromycin and Gallic Acid
(§4) • FICA, FICB—Fractional inhibitory concentration of drug A & B respectively. • MICA, MICB—Minimum inhibitory concentration of drug A & B respectively. • [A], [B]—Concentration of drug A & B respectively. • The FIC indexes were interpreted as follows: synergy is defined as ≤0.5; additivity is defined as 0.5<4.0; and antagonism is defined as >4. (d) Resistance Generation Study Results

For test [3], the system named is Pasteurella multocida ATCC 43137. The test can be described thus: MIC by standard broth micro dilution assay (CLSI). The settings on record: ATCC43137, P. multocida, BHIB, 37° C., 18-24 h. Type of test: cell-based. The method, then:
(§5) The bacterial strains of Mannheimia haemolytica ATCC 29702 and Pasteurella multocida ATCC 43137 were purchased from American Type Culture Collection (ATCC) distributor CEDARLANE Corporation, Burlington, Ontario, Canada and revived according to the manufacturer's instruction. Bacteria were grown in Brain Heart Infusion broth (BHIB).
(§6) MIC of tulathromycin and gallic acid against Mannheimia haemolytica and Pasteurella multocida was determined by using standard broth micro dilution assay as outlined by CLSI (Richard S, Lynn S-M, Avery C G. Antimicrobial susceptibility testing protocols. New York: CRC Press; 2007). Strains were sub-cultured in Brain Heart Infusion Broth (BHIB), incubated at 37° C. overnight and bacterial suspension OD was adjusted with the media to 0.5 McFarland turbidity as per CLSI protocol (Approx. cell density 1.5×10^8 CFU/mL) using normal saline as control. 100 μl of broth was added to each well (including positive control wells) and then serial dilution of tulathromycin (5 to 0.04 μg/ml) and gallic acid (500 to 3.9 μg/ml) was executed. 5 μl of bacterial sample was added to all the wells except the positive control well. […] Plates were then incubated at 37° C. for 18-24 h and were subsequently read automatically by using 96 well plate reader (BIORAD iMark Microplate Reader) at 655 nm. The readings were double checked manually using the Sensititre Vizion System.

For test [4], the system named is Mannheimia haemolytica ATCC 29702. The test can be described thus: MIC by standard broth micro dilution assay (CLSI). The settings on record: ATCC29702, M. haemolytica, BHIB, 37° C., 18-24 h. Type of test: cell-based. The method, then:
as §5, §6

In another test the test system is P. multocida ATCC 43137. The test can be described thus: Synergy studies, checker board serial dilution. Type of test: cell-based, Pasteurella multocida. The settings on record: gallic acid alone, 3.9 μg/ml dose. On the procedure: as §3, §4

Turning to `O=C(O)c1cc(O)c(O)c(O)c1` [gallic acid], the “effect of sub-MIC pre-treatment on sensitivity of the bacteria” value in the test on M. haemolytica was “does not affect the sensitivity; also recorded: no effect on the sensitivity”; in the test with P. multocida, “did not alter the sensitivity; also recorded: no effect on the sensitivity”. Also, the MIC in test [1] came out at 500 µg/mL; in test [3] it was 500 µg/mL (≈ 2940 µM); in test [4] it was 250 µg/mL (≈ 1470 µM). Moreover, the IC50 at arginase is 2200 nM. Moreover, the “maximum reduction in bacterial growth” value in test [2] came to 7.70%; in the test on P. multocida ATCC 43137, 5.33%.
